{"source": "paper PMC7862523", "about": "(Clinical Pharmacokinetics, 2020)", "key": {"[1]": {"experiment": "Population pharmacokinetic model"}, "[2]": {"experiment": "Association between model-derived AUC and pharmacodynamic biomarkers", "type": "in vivo, human"}, "[3]": {"details": "final population PK model, combined dataset"}}, "data": [{"compound": "CC(C)CN(C[C@@H](O)[C@H](Cc1ccccc1)NC(=O)O[C@H]1CO[C@H]2OCC[C@H]21)S(=O)(=O)c1ccc(N)cc1", "note": "[Darunavir]", "values": [{"measurement": "CL higher in CYP3A5 expressors compared with non-expressors", "setting": "[1]; combined dataset", "value": 19, "unit": "%"}, {"measurement": "CL lower in female compared with male individuals", "setting": "[1]; combined dataset", "value": 21, "unit": "%"}, {"measurement": "σadditive (SD), residual variability", "setting": "[1]; final model", "value": 0.641}, {"measurement": "σexponential (SD), residual variability", "setting": "[1]; final model", "value": 0.281}, {"measurement": "SLCO3A1 G > T on V (covariate scale factor)", "setting": "[1]; final model, rs8027174", "value": 0.81}, {"measurement": "ωCL (SD), inter-individual variability of CL", "setting": "[1]; [3]", "value": 0.22}, {"measurement": "ωV (SD), inter-individual variability of V", "setting": "[1]; [3]", "value": 0.33}, {"measurement": "ωka (SD), inter-individual variability of ka", "setting": "[1]; [3]", "value": 0.60}, {"measurement": "ka (absorption rate constant), estimate", "setting": "[1]; final population PK model, combined dataset, typical value", "value": 0.68, "unit": "h⁻¹"}, {"measurement": "correlation between AUC and CD4 lymphocyte count", "setting": "[2]; Spearman, p = 0.3", "value": "no apparent correlation"}, {"measurement": "correlation between AUC and occurrence of CNS adverse events", "setting": "[2]; any point during follow-up, W = 1613.5, p = 0.42", "value": "no apparent correlation"}, {"measurement": "correlation between AUC and occurrence of lipodystrophy", "setting": "[2]; any point during follow-up, W = 1687, p = 0.97", "value": "no apparent correlation"}, {"measurement": "correlation between AUC and viral load", "setting": "[2]; viral load > 40 or < 40 copies/mL, Wilcoxon W = 582, p = 0.45", "value": "no apparent correlation"}]}]}
